In patent US20050197350A1, “Novel quinoline, tetrahydroquinazoline, and pyrimidine derivatives and methods of treatment related to the use thereof” (TAISHO PHARMACEUTICAL CO., LTD., priority 2003, published 2005) one finds class data, which are given here for 36 compounds.

The structures appear in SMILES notation.

For one test, the system named is MCH receptors. The test can be described thus: MCH receptor activity class (method not given). The note with it: MCH receptor activity class 1-3 (percent of control at 10^-7 M or IC50).
On to `CN(C)c1nc(N[C@H]2CC[C@@H](CNC(=O)Nc3ccc(F)cc3F)CC2)nc2c1CCCC2` [compound 2453], for which the class is reported as 2 (Class 2: The value of percent of control at 10^−7 M was from 40% to 60% or the value of IC′50 was from 50 nM to 200 nM.). As to `Cc1cc(F)ccc1NC(=S)N[C@H]1CC[C@@H](Nc2cc(N(C)C)c3ccccc3n2)CC1` [compound 2295], the class was 3 (Class 3 The value of percent of control at 10^−7 M was more than 60% or the value of IC50 was more than 200 nM.). On the same count and under the same terms, the figure for `CN(C)c1nc(N[C@H]2CC[C@@H](CNC(=O)Nc3ccccc3C(C)(C)C)CC2)nc2c1CCCC2` [compound 2476] is 2 (Class 2: The value of percent of control at 10^−7 M was from 40% to 60% or the value of IC′50 was from 50 nM to 200 nM.).

The test is the same for the next values; noted with them: MCH receptor; class by percent of control at 10^-7 M or IC50.
Consider `CN(C)c1nc(N[C@H]2CC[C@@H](NC(=S)Nc3ccc(F)c(F)c3F)CC2)nc2c1CCCC2` [compound 1970], for which the class is listed as 3 (Class 3 The value of percent of control at 10^−7 M was more than 60% or the value of IC50 was more than 200 nM.). Still for that read-out and setting: the figure for `CN(C)c1cc(N[C@H]2CC[C@@H](NC(=O)c3ccc(C#N)cc3)CC2)nc2ccccc12` [compound 77] is 3 (Class 3 The value of percent of control at 10^−7 M was more than 60% or the value of IC50 was more than 200 nM.); for `Cc1ccc(C(=O)NC[C@H]2CC[C@@H](Nc3cc(N(C)C)c4ccccc4n3)CC2)cc1F` [compound 201, N-[(cis-4-{[4-(dimethylamino)quinolin-2-yl]amino}cyclohexyl)methyl]-3-fluoro-4-methylbenzamide] it is 3 (Class 3 The value of percent of control at 10^−7 M was more than 60% or the value of IC50 was more than 200 nM.). Same read-out and setting: the value for `CN(C)c1nc(N[C@H]2CC[C@@H](NC(=S)NCCCCc3ccccc3)CC2)nc2c1CCCC2` [compound 2064] was 3 (Class 3 The value of percent of control at 10^−7 M was more than 60% or the value of IC50 was more than 200 nM.).

In the case of `CN(C)c1cc(N[C@H]2CC[C@@H](CNC(=O)c3ccc(F)cc3)CC2)nc2ccccc12` [compound 164, N-[(cis-4-{[4-(dimethylamino)quinolin-2-yl]amino}cyclohexyl)methyl]-4-fluorobenzamide], the class is 3 (Class 3 The value of percent of control at 10^−7 M was more than 60% or the value of IC50 was more than 200 nM.).

Staying with this test, now noted: activity class 1-3: percent of control at 10^-7 M or IC50.
As to `CN(C)c1cc(N[C@H]2CC[C@@H](CNC(=O)Oc3ccc(Br)cc3)CC2)nc2ccccc12` [compound 1563], the class is given as 3 (Class 3 The value of percent of control at 10^−7 M was more than 60% or the value of IC50 was more than 200 nM.).

Take `Cc1cccc(C(C)C)c1NC(=O)N[C@H]1CC[C@@H](Nc2nc3c(c(N(C)C)n2)CCCC3)CC1` [compound 1679]: the class is reported as 2 (Class 2: The value of percent of control at 10^−7 M was from 40% to 60% or the value of IC′50 was from 50 nM to 200 nM.). The same measure, in the same setting: the figure for `CN(C)c1nc(N[C@H]2CC[C@@H](CNC(=O)OCc3ccccc3Cl)CC2)nc2c1CCCC2` [compound 1616] is 3 (Class 3 The value of percent of control at 10^−7 M was more than 60% or the value of IC50 was more than 200 nM.); for `Cc1cccc(C)c1NC(=O)N[C@H]1CC[C@@H](Nc2nc3c(c(N(C)C)n2)CCCC3)CC1` [compound 1660] it is 3 (Class 3 The value of percent of control at 10^−7 M was more than 60% or the value of IC50 was more than 200 nM.).

The test is the same for the next values; noted with them: activity class per percent of control at 10^-7 M or IC50.
In the case of `COc1ccc(CNC[C@H]2CC[C@@H](Nc3cc(N(C)C)c4ccccc4n3)CC2)c2ccccc12` [compound 1126], the class was 2 (Class 2: The value of percent of control at 10^−7 M was from 40% to 60% or the value of IC′50 was from 50 nM to 200 nM.). Regarding `COc1ccc2[nH]cc(CN[C@H]3CC[C@@H](Nc4cc(N(C)C)c5ccccc5n4)CC3)c2c1` [compound 1090], the class is 3 (Class 3 The value of percent of control at 10^−7 M was more than 60% or the value of IC50 was more than 200 nM.).

The same test, now with this note: class 1-3 by percent of control at 10^-7 M or IC50.
As for `CN(C)c1nc(N[C@H]2CC[C@@H](NC(=O)c3ccc(I)cc3)CC2)nc2c1CCCC2` [compound 477], the class is on record as 3 (Class 3 The value of percent of control at 10^−7 M was more than 60% or the value of IC50 was more than 200 nM.).

With `Cc1onc(-c2c(Cl)cccc2Cl)c1C(=O)N[C@H]1CC[C@@H](Nc2nc3c(c(N(C)C)n2)CCCC3)CC1` [compound 570], the class is given as 1 (Class 1: The value of percent of control at 10^−7 M was less than 40% or the value of IC50 was less than 50 nM.).

The test is the same for the next values; noted with them: class by percent of control at 10^-7 M or IC50.
For the compound `CN(C)c1ccnc(N[C@H]2CC[C@@H](NC(=O)C3CCCC[C@H]3C(=O)c3ccccc3)CC2)n1` (stereo partly drawn) [compound 832], the class was 3 (Class 3 The value of percent of control at 10^−7 M was more than 60% or the value of IC50 was more than 200 nM.). As for `CN(C)c1nc(N[C@H]2CC[C@@H](CNC(=O)c3cc(C(C)(C)C)nn3C)CC2)nc2c1CCCC2` [compound 648], the class is 3 (Class 3 The value of percent of control at 10^−7 M was more than 60% or the value of IC50 was more than 200 nM.). Same read-out and setting: the figure for `COC(=O)[C@H](Cc1ccccc1)NC(=O)N[C@H]1CC[C@@H](Nc2nccc(N(C)C)n2)CC1` (relative stereo) [compound 2225] is 3 (Class 3 The value of percent of control at 10^−7 M was more than 60% or the value of IC50 was more than 200 nM.); for `CN(C)c1ccnc(N[C@H]2CC[C@@H](CNC(=O)C3CC(=O)c4ccccc43)CC2)n1` (relative stereo) [compound 935, N-[(cis-4-{[4-(dimethylamino)pyrimidin-2-yl]amino}cyclohexyl)methyl]-3-oxoindane-1-carboxamide] it is 1 (Class 1: The value of percent of control at 10^−7 M was less than 40% or the value of IC50 was less than 50 nM.). Same read-out and setting: the value for `CN(C)c1cc(N[C@H]2CC[C@@H](CNCc3ccccc3SC(F)(F)F)CC2)nc2ccccc12` [compound 1165] was 3 (Class 3 The value of percent of control at 10^−7 M was more than 60% or the value of IC50 was more than 200 nM.); that for `COc1cc(NC(=O)N[C@H]2CC[C@@H](Nc3cc(N(C)C)c4ccccc4n3)CC2)cc(OC)c1OC` [compound 2149, N-(cis-4-{[4-(dimethylamino)quinolin-2-yl]amino}cyclohexyl)-N′-(3,4,5-trimethoxyphenyl)urea] was 1 (Class 1: The value of percent of control at 10^−7 M was less than 40% or the value of IC50 was less than 50 nM.).

Turning to `CN(C)c1nc(N[C@H]2CC[C@@H](CNCc3ccccc3OC(F)F)CC2)nc2c1CCCC2` [compound 1414], the class is given as 3 (Class 3 The value of percent of control at 10^−7 M was more than 60% or the value of IC50 was more than 200 nM.).

On to `CN(C)c1cc(N[C@H]2CC[C@@H](NC(=S)Nc3ccc(C#N)cc3)CC2)nc2ccccc12` [compound 2168], for which the class is reported as 3 (Class 3 The value of percent of control at 10^−7 M was more than 60% or the value of IC50 was more than 200 nM.). Still for that read-out and setting: the value for `CN(C)c1cccc(C(=O)N[C@H]2CC[C@@H](Nc3cc(N(C)C)c4ccccc4n3)CC2)c1` [compound 705] was 3 (Class 3 The value of percent of control at 10^−7 M was more than 60% or the value of IC50 was more than 200 nM.); that for `CCOc1ccccc1CN[C@H]1CC[C@@H](Nc2nccc(N(C)C)n2)CC1` [compound 1206] was 3 (Class 3 The value of percent of control at 10^−7 M was more than 60% or the value of IC50 was more than 200 nM.). Regarding `CN(C)c1nc(N[C@H]2CC[C@@H](NC(=S)Nc3ccc(N4CCOCC4)nc3)CC2)nc2c1CCCC2` [compound 2087], the class was 3 (Class 3 The value of percent of control at 10^−7 M was more than 60% or the value of IC50 was more than 200 nM.).

For the compound `COC(=O)c1cccc(NC(=S)N[C@H]2CC[C@@H](Nc3nc4c(c(N(C)C)n3)CCCC4)CC2)c1` [compound 1762], the class is reported as 3 (Class 3 The value of percent of control at 10^−7 M was more than 60% or the value of IC50 was more than 200 nM.). On the same count and under the same terms, the value for `CC1=C(CC(=O)N[C@H]2CC[C@@H](Nc3cc(N(C)C)c4ccccc4n3)CC2)c2cc(F)ccc2/C1=C/c1ccc([S+](C)[O-])cc1` (relative stereo) [compound 743] was 3 (Class 3 The value of percent of control at 10^−7 M was more than 60% or the value of IC50 was more than 200 nM.); that for `COc1ccc(OC)c(CNC[C@H]2CC[C@@H](Nc3nc4c(c(N(C)C)n3)CCCC4)CC2)c1` [compound 1367] was 2 (Class 2: The value of percent of control at 10^−7 M was from 40% to 60% or the value of IC′50 was from 50 nM to 200 nM.); that for `COc1ccc(NC(=O)N[C@H]2CC[C@@H](Nc3nccc(N(C)C)n3)CC2)c(OC)c1` [compound 2231] was 3 (Class 3 The value of percent of control at 10^−7 M was more than 60% or the value of IC50 was more than 200 nM.).

As for `CN(C)c1cc(N[C@H]2CC[C@@H](NC(=O)C3CCc4ccccc4C3)CC2)nc2ccccc12` (relative stereo) [compound 778], the class is 3 (Class 3 The value of percent of control at 10^−7 M was more than 60% or the value of IC50 was more than 200 nM.). Same read-out and setting: the value for `COc1ccc(CNC[C@H]2CC[C@@H](Nc3nc4c(c(N(C)C)n3)CCCC4)CC2)c(OC)c1C` [compound 1409] was 3 (Class 3 The value of percent of control at 10^−7 M was more than 60% or the value of IC50 was more than 200 nM.); that for `CN(C)c1nc(N[C@H]2CC[C@@H](NC(=O)Nc3ccc(Br)cc3)CC2)nc2c1CCCC2` [compound 1813] was 3 (Class 3 The value of percent of control at 10^−7 M was more than 60% or the value of IC50 was more than 200 nM.); that for `CN(C)c1ccnc(N[C@H]2CC[C@@H](CNC(=O)C(c3ccccc3)c3ccccc3)CC2)n1` [compound 377, N-[(cis-4-{[4-(dimethylamino)pyrimidin-2-yl]amino}cyclohexyl)methyl]-2,2-diphenylacetamide] was 1 (Class 1: The value of percent of control at 10^−7 M was less than 40% or the value of IC50 was less than 50 nM.).

The same test, now with this note: class by percent of control at 10^−7 M or IC50.
`Cc1cnc(NC[C@H]2CC[C@@H](NC(=O)c3cccc(OC(F)(F)F)c3)CC2)nc1N(C)C` [compound 2721]: the class is recorded as 3 (Class 3 The value of percent of control at 10^−7 M was more than 60% or the value of IC50 was more than 200 nM.).
